Test results published in patent US20110045032A1 (priority 2001, published 2011).
“Also recorded” adds a separate entry of the source.

Assays:
Assay type in all cases: in vivo
[1] = tested on: dust mite-sensitized rabbits; assay: Pulmonary function after allergen challenge, intratracheal powder (Example 25)
Method: This study defines the effect of 7 days of treatment with DHEA-S on allergen-induced bronchial hyperresponsiveness (BHR), early and late phase responses, and pulmonary inflammation in dust mite-sensitized rabbits. Baseline BHR and inflammation were first determined. The following week, allergen challenge, pulmonary function testing and BALF were performed on the untreated rabbits. Histamine sensitivity was determined 24 hours post allergen challenge. Rabbits were rested for 3 weeks then baseline values were re-established. The following week, DHEA-S (5 mg/day) was delivered once a day for 7 days via an intratracheal powder injector through the endrotracheal tube of the anesthetized rabbit. On day 8, 24 hrs after the last treatment, allergen challenge, pulmonary function testing and BALF were performed as previously. On day 9, 24 hrs after allergen challenge, a histamine challenge was performed. The drug was not micronized prior to use thus only a portion of the administered date was expected to reach the deep lung. The study includes 4 animals studied under a crossover design. The treatment with DHEA-S led to changes in the disease status of the animals that are described in the following paragraph.
Effects on airway obstruction were measured by changes in dynamic compliance and total lung resistance in response to allergen challenge. Rabbits were monitored for 6 hours following allergen challenge and the values plotted against time. Changes in dynamic compliance were determined by the % change in compliance as compared to the animal's initial saline value recorded prior to challenge. Changes in response to allergen and/or treatment were calculated using the area under the curve (AUC) where an AUC unit is defined as % change×hour. Treatment with DHEA-S attenuated the drop in airway compliance following allergen challenge by 86% as compared to allergen alone. Following allergen alone the total AUC was −146 units compared to −20 units for animals treated with DHEA-S. This difference in the total AUC for vehicle and DHEA-S treated animals was determined to be significant using Student's t-test for paired observations, p=0.036. Similarly, treatment with DHEA-S attenuated the increase in airway resistance following allergen challenge by 54% as compared to allergen alone. […] Variability during the late phase kept differences in AUC between the vehicle and drug treatment groups from being significant when analyzed using a paired t-test.

[2] = tested on: dust mite-sensitized rabbits; assay: Lung histology (Example 26); conditions: blinded veterinary pathologist, scale of 0 to 4; vs vehicle control
Method: This study defines the effect of 7 days of treatment with DHEA-S on allergen-induced bronchial hyperresponsiveness (BHR), early and late phase responses, and pulmonary inflammation in dust mite-sensitized rabbits. Baseline BHR and inflammation were first determined. DHEA-S (5 mg/ml, 2 ml nebulized) or an equivalent volume of vehicle was delivered once per day via nebulization through a pediatric facemask covering the nose and mouth on days 1 through 7. On day 8, 24 hours after the last treatment, allergen challenge, pulmonary function testing and BALF were performed. On day 9, 24 hours after allergen challenge a histamine challenge was performed and the lungs removed for histology. The study includes 5 animals studied under a crossover design. […]
Effects on interstitial inflammation were evaluated by histology. A veterinary pathologist evaluated hematoxylin and eosin stained sections in a blinded manner. Sections were scored for inflammatory parameters using a scale of 0 to 4 with 0 representing no finding and 4 representing severe. […] All of the following parameters were scored lower in the DHEA-S treated lungs compared to the vehicle control group: cuffing of the airways and blood vessels by inflammatory cells, bronchial-associated lymphoid tissue hyperplasia, and bronchitis/bronchiolitis. […]

[3] = Acute inhalation toxicity in dogs; conditions: dog, in vivo, inhaled; preclinical toxicology studies; not achieved at this dose; read-out: maximum tolerated dose
Method: (§1) Other findings were minor in nature and detailed in the reports that follow. Therefore, nebulization of an aqueous solution was determined to be feasible but not practical due to the inability to achieve a sufficient safety factor to support clinical trials.

dogs = assay: Acute inhalation toxicity in dogs; conditions: inhalation
Method: as §1

[4] = tested on: dust mite-sensitized rabbits; assay: Lung histology (Example 27); conditions: compared to saline
Method: (§2) This follow-up study compared the effects of DHEA-S and Puimicort® (budesonide inhalation suspension) on allergen-induced bronchial hyperresponsiveness (BHR) to histamine and pulmonary inflammation in dust mite-sensitized rabbits. The study included 18 animals divided into 3 treatment groups: saline, DHEA-S, and Puimicort. The animals were treated for once per day for 5 consecutive days via nebulization through a pediatric facemask covering the nose and mouth. Treatments were DHEA-S, 10 mg/day (5 mg/ml), Pulmicort Respules, 0.5 mg/day (0.5 mg/2 ml, note: this is the standard human dose) or saline (2 ml). A dust mite challenge was performed on day 4, and development of airway inflammation was assessed 6 hours and 30 hours after dust mite challenge. Histamine sensitivity was assessed 30 hours after challenge (day 5) and the lungs removed for histology.
Analysis of lung sections indicated a moderate level of pulmonary inflammation in all groups. No differences in the level of monocyte phagocytic hyperplasia, airway and blood vessel cuffing by inflammatory cells, pneumonitis, pneumonia, bronchial associated lymphoidal tissue hyperplasia, septal edema, hemorrhage, alveolar edema, or bronchitis/bronchiolitis was observed, although monocyte phagocytic hyperplasia tended to be higher in the Pulmicort and DHEA-S groups, and bronchitis tended to be lower.

[5] = tested on: dust mite-sensitized rabbits; assay: BALF inflammation, DHEA-S vs Pulmicort vs saline (Example 27)
Method: as §2

[6] = Acute inhalation toxicity in rats; conditions: rat, in vivo, inhaled; preclinical toxicology studies; not achieved at this dose; read-out: maximum tolerated dose
Method: as §1

rats = assay: Acute inhalation toxicity in rats; conditions: inhalation
Method: as §1

[7] = up to the maximum feasible dose
[8] = 6 hours after allergen challenge, compared to Pulmicort

## CC12CCC3C(CC=C4CC(OS(=O)(=O)[O-])CCC43C)C1CCC2=O.[Na+] (centres unmarked) [DHEA-S, Dehydroepiandrosterone sulfate]
[1]; 5 mg/day intratracheal powder, 7 days, compared to allergen alone
  attenuation of the drop in airway compliance following allergen challenge: 86%
[1]; 6 hours, control 1069±243, not significant
  total area under the curve for the change in resistance following allergen challenge: 495
[1]; AUC unit = % change×hour, 6 hours, control −146±29
  total area under the curve for the change in compliance following allergen challenge: −20 units
[1]; compared to allergen alone
  attenuation of the increase in airway resistance following allergen challenge: 54%
[1]; in the 6 hours after aerosol dust mite challenge
  reduction of airway resistance changes: over 200%
[1]; inhaled or nasal, 6 h
  total area under the curve for the change in compliance following allergen challenge: −20±23 units
[1]; rabbit, in vivo
  24-hour histamine responsiveness following allergen challenge: downward shift
[2]
  histological evaluation of airway inflammation: reduced inflammatory cell cuffing of the vessels and bronchi, bronchus-associated lymphoid tissue hyperplasia, and epithelial sloughing; also recorded: scored lower
[3]
  MTD: > 2 mg/kg/day
dogs
  maximum tolerated dose: could not be achieved
dogs; [7]
  adverse effects to the respiratory tract: did not produce any adverse affects
[4]; not significant
  monocyte phagocytic hyperplasia: tended to increase
  necrotizing bronchitis: tended to decrease
[4]; statistically significant
  pavementing: decreased pavementing
[5]; 6 hours after allergen challenge
  number of eosinophils in BALF: tended to decrease
[5]; [8]
  decrease of epithelial shedding: 54%
  reduction of number of neutrophils in the BALF: 91%
[5]; 6 hours after allergen challenge, compared to Pulmicort, DHEA-S 10 mg/day nebulized, 5 days
  reduction of cellular influx of cells into the BALF: 62%
[5]; 6 hours or 24 hours after allergen challenge
  allergen-induced increase in neutrophils in BALF: no allergen-induced increase in neutrophils
[5]; 24 hours after allergen challenge
  number of eosinophils in BALF: significant elevation
[5]; six hours following allergen challenge
  total number of cells in the BALF compared to pre-challenge value: did not
[5]; summary statement
  reduction of eosinophilic inflammation compared with budesonide: at least equivalent to budesonide
  reduction of neutrophilic inflammation compared with budesonide: far superior
[6]
  MTD: > 11 mg/kg/day
rats
  maximum tolerated dose: could not be achieved
rats; [7]
  adverse effects to the respiratory tract: did not produce any adverse affects
